Measured values from patent US20180105548A1, “A novel compound (KS-513) isolated from Pseudolysimachion rotundum var. subintegrum, the composition comprising the same preventing or treating allergic disease, inflammatory disease, asthma or chronic obstructive pulmonary disease and the use thereof” (priority 2015, published 2018).

Assays:
NO = NO production in LPS-treated RAW264.7 cell (Griess Reagent); assay type: cell-based, mouse; details: for NO production (relative % comparing with LPS treatment group) / NO production, Inhibitory ratio (%): LPS 1 μg/mL, 24 hours
Procedure: In order to determine the amount of NO reproduction in medium, following test was performed according to the method disclosed in the literature (Ding, A. H., et al., 1988, Release of reactive nitrogen intermediates and reactive oxygen intermediates from mouse peritoneal macrophages, Comparison of activating cytokines and evidence for independent production, Journal of Immunology, 141, pp 2407-2412).
RAW264.7 cell was inoculated into 96 well plates in the concentration of 1×10^5 cell/well to incubate for 18 hours. Various concentration of KS-513 compound (2.5, 5, 10 and 20 μM) was pre-treated therewith and 1 μg/mL of LPS (L6529, Sigma) was added thereto to incubate for 24 hours. The equivalent amount of Griess Reagent (G4410, Sigma) to the medium was added thereto and reacted at room temperature for 10 mins to determine the absorbance at 540 nm. The level of NO in the medium was determined using by standard curve expressed according to various concentration of sodium nitrite and the result was shown in Table 5 and FIG. 3.

TNF-alpha [1] = test: TNF-alpha production in LPS-treated RAW264.7 cell (ELISA); assay type: cell-based, mouse; details: for TNF-alpha production (relative % comparing with LPS treatment group) / TNF-alpha production, Inhibitory ratio (%): LPS 1 μg/mL, 24 hours
Procedure: (§1) RAW264.7 cell was inoculated into 96 well plates in the concentration of 1×10^5 cell/well to incubate for 18 hours. Various concentration of KS-513 compound (2.5, 5, 10 and 20 μM) was pre-treated therewith and 1 μg/mL of LPS (L6529, Sigma) was added thereto to incubate for 24 hours. The level of inflammatory cytokines such as IL-1beta, IL-6, TNF-alpha etc in the cell medium was determined by ELISA kit (IL-1beta:559603, IL-6:555240, TNF-alpha:5558534, BD) and the result was shown in FIG. 5 and Table 7-9.

COX-2 = test: mRNA expression of COX-2 in RAW264.7 cell line induced by LPS (real-time PCR); assay type: cell-based, mouse; details: for COX-2 mRNA expression, Fold (value compared with a negative group) / COX-2 mRNA expression, Inhibition ratio (IR) compared with LPS treatment group: LPS 1 μg/ml, 12 hours
Procedure: (§2) In order to determine the inhibitory effect on the mRNA expression of pro-inflammatory medicated enzyme such as iNOS or COX-2, and pro-inflammatory medicated cytokines such as IL-1beta, IL-6, TNF-alpha in RAW264.7 cell line induced by LPS, following test using by real-time PCR (real-time polymerase chain reaction, quantitative real time polymerase chain reaction, qPCR) was performed according to the method disclosed in the literature (Livak, K. J., Schimittgen T. D., 2001, Analysis of relative gene expression data using real-time quantitiative PCR and the 2 (-Delta Delta C(T) method, Methods 25, p 402-408):
(§3) RAW264.7 cell was inoculated into 6-well-plates in the concentration of 1×10^6 cell/well to incubate for 12 hours. Various concentration of KS-513 compound (2.5, 5, 10 and 20 μM) was pre-treated therewith and 1 μg/mL of LPS (L6529, Sigma) was added thereto to incubate for 12 hours.
(§4) To extract total RNA, RNA was extracted using by Triazol B (invitrogen) and cDNA was synthesized using by Omniscript RT kit (205113, Qiagen, Gmbh, Hilden, Germany) after the quantification. The synthesized cDNA was mixed with its template and the primers shown in Table 3 (SEQ.I.D. 1-14), performed to denaturation at 94° C. for 5 mins using by PCR mix (PCR master Mix, Bioneer, Korea), and reacted as follows: 1 cycle for pre-denaturation; at 95° C. for 30 sec, 60° C. for 45 sec, 72° C. for 45 sec, 30 cycles for denaturation; 10 mins at 72° C., 1cycle for final extension. (FIG. 2)

iNOS = test: mRNA expression of iNOS in RAW264.7 cell line induced by LPS (real-time PCR); assay type: cell-based, mouse; details: for iNOS mRNA expression, Fold (value compared with a negative group) / iNOS mRNA expression, Inhibition ratio (IR) compared with LPS treatment group: LPS 1 μg/ml, 12 hours
Procedure: as §2, §3, §4

[2] = Acute toxicity test of oral administration in rat; details: Sprague-Dawley, in vivo
Procedure: The acute toxicity test was performed by administrating inventive compound to 6-weeks aged SPF Sprague-Dawley rats.
After administrating the extract or compounds, all the clinical changes i.e., mortality, clinical signs, body weight changes was observed and blood test such as haematological test and hematological biochemistry test was performed. The abnormal changes of abdominal organ and thoracic organ were observed after autopsy.

TNF-alpha [3] = test: mRNA expression of TNF-alpha in RAW264.7 cell line induced by LPS (real-time PCR); assay type: cell-based, mouse; details: for TNF-alpha mRNA expression, Fold (value compared with a negative group) / TNF-alpha mRNA expression, Inhibition ratio (IR) compared with LPS treatment group: LPS 1 μg/ml, 12 hours
Procedure: as §2, §3, §4

IL-1beta = IL-1beta production in LPS-treated RAW264.7 cell (ELISA); assay type: cell-based, mouse; details: for IL-1beta production (relative % comparing with LPS treatment group) / IL-1beta production, Inhibitory ratio (%): LPS 1 μg/mL, 24 hours
Procedure: as §1

IL-6 = IL-6 production in LPS-treated RAW264.7 cell (ELISA); assay type: cell-based, mouse; details: for IL-6 production (relative % comparing with LPS treatment group) / IL-6 production, Inhibitory ratio (%): LPS 1 μg/mL, 24 hours
Procedure: as §1

[4] = vs LPS treatment group (1 μg/ml), FIG. 5
[5] = various concentration, compared with control group treated with LPS (100%)

CO[C@@H]1C[C@H]2[C@H](OC(=O)c3ccc(O)cc3)[C@@H]3O[C@]3(CO)[C@H]2[C@H](O[C@@H]2O[C@H](CO)[C@@H](O)C(O)[C@H]2O)O1 (stereo partly drawn) [KS-513, (1aS, 1bS,2S,4S,5aR,6S,6aS)-1a-(hydroxymethyl)-4-methoxy-2-(((2S,3R,5S,6R)-3,4,5-trihydroxy-6-(hydroxymethyl)tetrahydro-2H-pyran-2-yl)oxy)octahydrooxireno[2′,3′:4,5]cyclopenta[1,2-c]pyran-6-yl 4-hydroxybenzoate]
NO production (relative % comparing with LPS treatment group) (NO; 2.5 μM): 91.89 ± 4.24%
NO production, Inhibitory ratio (%) (NO; 2.5 μM): 8.21%
NO production (relative % comparing with LPS treatment group) (NO; 5 μM): 83.69 ± 3.79%
NO production, Inhibitory ratio (%) (NO; 5 μM): 16.41%
NO production (relative % comparing with LPS treatment group) (NO; 10 μM): 80.06 ± 2.68%
NO production, Inhibitory ratio (%) (NO; 10 μM): 20.04%
NO production (relative % comparing with LPS treatment group) (NO; 20 μM): 72.16 ± 3.57%
NO production, Inhibitory ratio (%) (NO; 20 μM): 27.94%
reproduced level of NO (NO; based on LPS treatment (100%)): reduced in a dose dependent manner
TNF-alpha production (relative % comparing with LPS treatment group) (TNF-alpha [1]; 2.5 μM): 97.38 ± 0.58%
TNF-alpha production, Inhibitory ratio (%) (TNF-alpha [1]; 2.5 μM): 2.62%
TNF-alpha production (relative % comparing with LPS treatment group) (TNF-alpha [1]; 5 μM): 86.12 ± 1.14%
TNF-alpha production, Inhibitory ratio (%) (TNF-alpha [1]; 5 μM): 13.88%
TNF-alpha production (relative % comparing with LPS treatment group) (TNF-alpha [1]; 10 μM): 68.03 ± 2.51%
TNF-alpha production, Inhibitory ratio (%) (TNF-alpha [1]; 10 μM): 31.97%
TNF-alpha production (relative % comparing with LPS treatment group) (TNF-alpha [1]; 20 μM): 58.44 ± 3.50%
TNF-alpha production, Inhibitory ratio (%) (TNF-alpha [1]; 20 μM): 41.56%
level of produced TNF-alpha (TNF-alpha [1]; [4]): reduced in a dose dependent manner
COX-2 mRNA expression, Fold (value compared with a negative group) (COX-2; 2.5 μM): 4.72 ± 0.21 Fold
COX-2 mRNA expression, Inhibition ratio (IR) compared with LPS treatment group (COX-2; 2.5 μM): 39.91%
COX-2 mRNA expression, Fold (value compared with a negative group) (COX-2; 5 μM): 2.64 ± 0.15 Fold
COX-2 mRNA expression, Inhibition ratio (IR) compared with LPS treatment group (COX-2; 5 μM): 66.40%
COX-2 mRNA expression, Fold (value compared with a negative group) (COX-2; 10 μM): 1.43 ± 0.50 Fold
COX-2 mRNA expression, Inhibition ratio (IR) compared with LPS treatment group (COX-2; 10 μM): 81.81%
COX-2 mRNA expression, Fold (value compared with a negative group) (COX-2; 20 μM): 0.97 ± 0.38 Fold
COX-2 mRNA expression, Inhibition ratio (IR) compared with LPS treatment group (COX-2; 20 μM): 87.66%
expressed level of mRNA of COX-2 (COX-2; [5]): significantly decreased in a dose dependent manner
iNOS mRNA expression, Fold (value compared with a negative group) (iNOS; 2.5 μM): 7.25 ± 2.51 Fold
iNOS mRNA expression, Inhibition ratio (IR) compared with LPS treatment group (iNOS; 2.5 μM): 18.41%
iNOS mRNA expression, Fold (value compared with a negative group) (iNOS; 5 μM): 5.94 ± 2.91 Fold
iNOS mRNA expression, Inhibition ratio (IR) compared with LPS treatment group (iNOS; 5 μM): 33.09%
iNOS mRNA expression, Fold (value compared with a negative group) (iNOS; 10 μM): 2.48 ± 0.19 Fold
iNOS mRNA expression, Inhibition ratio (IR) compared with LPS treatment group (iNOS; 10 μM): 72.12%
iNOS mRNA expression, Fold (value compared with a negative group) (iNOS; 20 μM): 1.32 ± 0.47 Fold
iNOS mRNA expression, Inhibition ratio (IR) compared with LPS treatment group (iNOS; 20 μM): 85.19%
expressed level of mRNA of iNOS (iNOS; [5]): significantly decreased in a dose dependent manner
LD50 at 14 days [2]: > 5000 mg/kg
TNF-alpha mRNA expression, Fold (value compared with a negative group) (TNF-alpha [3]; 2.5 μM): 9.60 ± 3.33 Fold
TNF-alpha mRNA expression, Inhibition ratio (IR) compared with LPS treatment group (TNF-alpha [3]; 2.5 μM): 14.34%
TNF-alpha mRNA expression, Fold (value compared with a negative group) (TNF-alpha [3]; 5 μM): 5.34 ± 3.27 Fold
TNF-alpha mRNA expression, Inhibition ratio (IR) compared with LPS treatment group (TNF-alpha [3]; 5 μM): 52.39%
TNF-alpha mRNA expression, Fold (value compared with a negative group) (TNF-alpha [3]; 10 μM): 2.72 ± 0.99 Fold
TNF-alpha mRNA expression, Inhibition ratio (IR) compared with LPS treatment group (TNF-alpha [3]; 10 μM): 75.69%
TNF-alpha mRNA expression, Fold (value compared with a negative group) (TNF-alpha [3]; 20 μM): 1.49 ± 0.77 Fold
TNF-alpha mRNA expression, Inhibition ratio (IR) compared with LPS treatment group (TNF-alpha [3]; 20 μM): 86.70%
expressed level of mRNA of TNF-alpha (TNF-alpha [3]; [5]): significantly decreased in a dose dependent manner
IL-1beta production (relative % comparing with LPS treatment group) (IL-1beta; 2.5 μM): 95.17 ± 3.68%
IL-1beta production, Inhibitory ratio (%) (IL-1beta; 2.5 μM): 4.83%
IL-1beta production (relative % comparing with LPS treatment group) (IL-1beta; 5 μM): 76.69 ± 3.40%
IL-1beta production, Inhibitory ratio (%) (IL-1beta; 5 μM): 23.31%
IL-1beta production (relative % comparing with LPS treatment group) (IL-1beta; 10 μM): 61.56 ± 3.18%
IL-1beta production, Inhibitory ratio (%) (IL-1beta; 10 μM): 38.44%
IL-1beta production (relative % comparing with LPS treatment group) (IL-1beta; 20 μM): 46.10 ± 2.51%
IL-1beta production, Inhibitory ratio (%) (IL-1beta; 20 μM): 53.9%
level of produced IL-1beta (IL-1beta; [4]): reduced in a dose dependent manner
IL-6 production (relative % comparing with LPS treatment group) (IL-6; 2.5 μM): 75.21 ± 2.20%
IL-6 production, Inhibitory ratio (%) (IL-6; 2.5 μM): 24.79%
IL-6 production (relative % comparing with LPS treatment group) (IL-6; 5 μM): 71.34 ± 5.75%
IL-6 production, Inhibitory ratio (%) (IL-6; 5 μM): 28.66%
IL-6 production (relative % comparing with LPS treatment group) (IL-6; 10 μM): 51.13 ± 2.31%
IL-6 production, Inhibitory ratio (%) (IL-6; 10 μM): 48.87%
IL-6 production (relative % comparing with LPS treatment group) (IL-6; 20 μM): 39.25 ± 2.85%
IL-6 production, Inhibitory ratio (%) (IL-6; 20 μM): 60.75%
level of produced IL-6 (IL-6; [4]): reduced in a dose dependent manner
